# Measured values from US20230141718A1, “METHODS OF TREATING GLIOBLASTOMA” (CELGENE QUANTICEL RESEARCH, INC., priority 2021, published 2023).
# What was measured:
# [1] = cited from earlier work
# glioblastoma = settings: in vivo; cited from earlier work
# [2] = Safety (TRAEs/TEAEs), CC-90010-GBM-002 Parts A and B; type: in vivo
# Text: This was then followed by a break in treatment therapy, e.g., from 1 to up to 4 weeks. […] Adjuvant therapy cycles were repeated from 2 to 6 times. After adjuvant therapy, was a monotherapy treatment.
# The demographics and characteristics of treated patients are described in the below table.
structure (smiles),measurement,setting,value
CS(=O)(=O)CCNCc1ccc(-c2ccc3ncnc(Nc4ccc(OCc5cccc(F)c5)c(Cl)c4)c3c2)o1 [lapatinib],"tissue:plasma ratio, mean",[1]; brain tumor tissue,13.0
same,antitumor activity in glioblastoma,glioblastoma,neither lapatinib nor gefitinib have shown evidence of antitumor activity
O=C(c1cc(Cc2n[nH]c(=O)c3ccccc23)ccc1F)N1CCN(C(=O)C2CC2)CC1 [olaparib],"tissue:plasma ratio, mean",[1]; brain tumor tissue,0.25
C#Cc1cccc(Nc2ncnc3cc(OCCOC)c(OCCOC)cc23)c1 [erlotinib],tissue:plasma ratio,[1]; brain tumor tissue,0.06-0.08
COc1cc2ncnc(Nc3ccc(F)c(Cl)c3)c2cc1OCCCN1CCOCC1 [gefitinib],median concentration in tumor tissue,[1]; glioblastoma tumor tissue,4100 ng/g
same,median concentration in plasma,[1]; in vivo,181 ng/mL
same,antitumor activity in glioblastoma,glioblastoma,neither lapatinib nor gefitinib have shown evidence of antitumor activity
"Cn1nnc2c(C(N)=O)ncn2c1=O [TMZ, 3,4-dihydro-3-methyl-4-oxoimidazo[5,1-d]-as-tetrazine-8-carboxamide, reference compound]",patients with TRAEs related to TMZ,[2]; Part B arm A,75%
same,patients with nausea related to TMZ,[2]; Part B arm A,46%
same,patients with thrombocytopenia related to TMZ,[2]; Part B arm A,46%
same,patients with TRAEs related to TMZ,[2]; Part B arm B,73%
same,patients with thrombocytopenia related to TMZ,[2]; Part B arm B,40%
